Measured values as given in US20080274061A1, “Method for Treating a Restless Limb Disorder” (priority 2007, published 2008).
Structures can show the parent of a compound that is named as a salt. Where two headings read alike, the source gives them in different places.

What was measured:
[1] = tested on: subjects with idiopathic RLS; assay: Clinical trial: subject-rated severity of RLS sensory symptoms during Suggested Immobilization Tests; type: in vivo, human; details: for maximum mean reduction from baseline in severity scores: single delivery, 0-10 scale; for onset of action after administration: doses of 124 μg and 247 μg, intranasal
Procedure: This example relates to a randomized, double-blind, placebo-controlled parallel-group proof-of-concept trial which assessed the efficacy, safety and tolerability of ascending doses of rotigotine nasal spray for the treatment of acute symptoms of RLS in subjects with idiopathic RLS. This was evaluated by subject rating of severity of symptoms (sensory symptoms) on a numeric symptoms severity scale and by the Periodic Limb Movement (PLM) index (motor symptoms) as measured by actigraphy following triggering of symptoms by immobilization. […] Subjects randomized to the “placebo group” received a single delivery of matching placebo nasal spray on each treatment day. […] It has been shown that immobilization results in worsening of both motor and sensory components of RLS symptoms. […] On each treatment day, the trial medication was administered 30 minutes after the start of the pre-dose SIT-0 or as soon as the subject's severity score reaches 5 on the numeric symptom severity scale, whichever is sooner. The last scoring prior to dosing is defined as the baseline value for each individual subject. • 1. […] PLM during Wakefulness Index (PLMWI) for each SIT and for specified time sections of each SIT (PLM during awake epochs/h, motor symptoms) was evaluated based on PLM measurements by means of actigraphy, recorded over the entire duration of the SIT period (pre dose and post dose SIT-0 to SIT-6, approximately 4.5 hours). Severity of symptoms in the legs was assessed by subject ratings using a numeric symptoms severity scale at the start of each pre-dose and post-dose SIT-0 to SIT-6 and every 5 minutes during each SIT. Scores on the scale range from 0 (‘no symptoms’) to 10 (‘very severe’).

[2] = tested on: subjects with idiopathic RLS; assay: Clinical trial: PLM during Wakefulness Index (PLMWI) by actigraphy during SITs; type: in vivo, human; details: highest dose (247 μg) nasal spray
Procedure: This example relates to a randomized, double-blind, placebo-controlled parallel-group proof-of-concept trial which assessed the efficacy, safety and tolerability of ascending doses of rotigotine nasal spray for the treatment of acute symptoms of RLS in subjects with idiopathic RLS. This was evaluated by subject rating of severity of symptoms (sensory symptoms) on a numeric symptoms severity scale and by the Periodic Limb Movement (PLM) index (motor symptoms) as measured by actigraphy following triggering of symptoms by immobilization. […] Subjects randomized to the “placebo group” received a single delivery of matching placebo nasal spray on each treatment day. • 1. […] PLM during Wakefulness Index (PLMWI) for each SIT and for specified time sections of each SIT (PLM during awake epochs/h, motor symptoms) was evaluated based on PLM measurements by means of actigraphy, recorded over the entire duration of the SIT period (pre dose and post dose SIT-0 to SIT-6, approximately 4.5 hours). RLS is usually associated with involuntary PLM occurring in wakefulness (PMLW) and sleep (PMLS) in 80-85% of RLS patients. […] A central reader was used to standardize PLM evaluation of the actigraphy measurements performed during the SIT period. […]

[3] = buccal, nasal or rectal administration to rats as HCl salt, compared with oral dosing; cited from earlier work
[4] = orally (perorally) administered, first-pass metabolism in the liver; cited from earlier work
[5] = effect of glycerol, in vitro permeation assays; cited from earlier work
[6] = Comparative storage test of aqueous rotigotine HCl solution with/without α-cyclodextrin; type: physicochemical; details: storage at 60° C. for 8 weeks, solution of 1.6 mg/ml with α-cyclodextrin
[7] = Maximum solubility in aqueous cyclodextrin solution at room temperature, isocratic HPLC; type: physicochemical; details: aqueous solution and aqueous solutions containing α- or β-cyclodextrin
Procedure: The concentration was determined by isocratic HPLC analysis. HPLC column LiChroCART 75×4 mm, Superspher 60 RP-select B 5 μm (Merck), column temperature: 30° C., mobile phase:water/acetonitrile/methanesulfonic acid (65/35/0.05 v/v/v), flow rate: 2 ml/min, injection volume: 50 μl, detection at 220 nm, retention time approx. 1.5 min. The concentration was determined by use of an external reference solution having known concentration.

Compound	maximum mean reduction from baseline in severity scores ([1]; 62 μg nasal spray)	maximum mean reduction from baseline in severity scores ([1]; 124 μg nasal spray)	maximum mean reduction from baseline in severity scores ([1]; 247 μg nasal spray)	decrease in the mean severity scores ([1]; doses of 124 μg and 247 μg nasal spray, SIT-1 through SIT-6, 0-10 scale)	onset of action after administration [1]	decrease from baseline in the PLMWI [2]	bioavailability (in words) [3]	bioavailability (in words) [4]	absorption through bovine nasal mucosa (in words) [5]	decrease in the rotigotine concentration [6]	solubility (in words) [7]
CCCN(CCc1cccs1)[C@H]1CCc2c(O)cccc2C1 [rotigotine, (−)-5,6,7,8-tetrahydro-6-[propyl[2-(2-thienyl)ethyl]amino]-1-naphthol]	−0.8 points	−2.0 points	−2.3 points	approximately 2 points	10 min	approximately 10 points	improved bioavailability	close to zero	enhance absorption		
CCCN(CCc1cccs1)[C@H]1CCc2c(O)cccc2C1 [Rotigotine HCl]					10 min					-0.07 mg/mL	
CCCN(CCc1cccs1)[C@H]1CCc2c(O)cccc2C1 [Rotigotine base]											practically insoluble
